# Laboratory results from patent publication US20240389846A1, “Methods for Localization of Cancerous Tissue Using Fluorescent Molecular Imaging Agent for Diagnosis or Treatment” (Vergent Bioscience, Inc., priority 2022, published 2024).
# How the values were obtained:
# tumor [1] = test: Phase 2 study: clinically significant events (CSEs) during tumor removal with imaging agent and NIR; type: in vivo, human; settings: Phase 2 study of VGT-309 in Australia
# Text: CSEs are one way to measure whether an imaging agent, such as VGT-309, adds a clinical benefit to the diagnosis and treatment process. In this context, CSEs generally fall into one of three categories: (1) localization of hard-to-find tumors, (2) identification of positive resection margins, and (3) identification of additional primary and metastatic lesions that were not previously detected using existing technologies.
# cancerous tissue = test: Preclinical / animal model studies: duration of VGT-309 fluorescence in tissue after administration; type: in vivo
# Text: There are several molecular imaging agents that are currently in various stages of development and testing, but of these agents VGT-309 is particularly advantageous. VGT-309 targets and covalently binds to cathepsin targets, which are present in larger amounts in solid tumors and tumor margins than in normal tissues. When this binding occurs, the quencher is cleaved from the molecule and VGT-309 becomes “active” at which point the tumor will fluoresce under near-infrared (NIR) light.
# tumor [2] = test: Intraoperative NIR imaging of patients given intravenous VGT-309 before surgery (Examples 1-3); type: in vivo, human
structure (smiles),measurement,setting,value
CC1(C)C(/C=C/C2=C(Cl)C(=C/C=C3/N(CCCCCC(=O)NCCNC(=O)c4c(F)c(F)c(OCC(=O)[C@H](CCCCNC(=O)CCCCCN5/C(=C/C=C/C=C/C=C\C6=[N+](CCCCS(=O)(=O)[O-])c7ccc8ccccc8c7C6(C)C)C(C)(C)c6c5ccc5ccccc65)NC(=O)[C@H](Cc5ccccc5)NC(=O)OCc5ccccc5)c(F)c4F)c4ccc5cc(S(=O)(=O)O)ccc5c4C3(C)C)/CCC2)=[N+](CCCS(=O)(=O)[O-])c2ccc(N(CCCS(=O)(=O)O)CCCS(=O)(=O)O)cc21 [VGT-309],fraction of patients who experienced a clinically significant event (CSE),tumor [1],one third
same,time VGT-309 may continue to emit a signal in tissue following administration,cancerous tissue; animal model studies suggest,out to seven days
same,time window after administration in which VGT-309 can fluoresce cancerous tissue,"cancerous tissue; based on preclinical studies, under NIR light",two hours to four days
same,visualization of tumor under NIR imaging,"tumor [2]; Example 1, patient, 0.32 mg/kg approximately 21 hours prior to surgery",clearly show the location and extent of the tumor
same,localization of primary tumor under NIR,"tumor [2]; Example 2, patient, 0.16 mg/kg approximately 21 hours prior to surgery",more easily locate the primary tumor
same,detection of lymph node spread by fluorescence under NIR,"tumor [2]; Example 2, patient, 0.16 mg/kg approximately 21 hours prior to surgery, biopsy confirmed that the cancer had spread",unexpected fluorescence in a more distant lymph node
same,identification of previously identified (primary) tumor,"tumor [2]; Example 3, patient with regrowth after radiation, 0.32 mg/kg approximately 18.5 hours prior to surgery",able to quickly identify and remove the previously identified tumor
same,identification of additional tumors (metastatic spread) using NIR,"tumor [2]; Example 3, patient, 0.32 mg/kg approximately 18.5 hours prior to surgery, abnormal lung tissue confirmed cancerous under NIR",able to identify additional tumors using NIR
